Measurements from PMC12406204 (Journal of Medicinal Chemistry, 2025).

Key:
Type in all cases: cell-based
CB2R [1] = target: T1, CB2R (Homo sapiens, UniProt P34972); test: CB2R cAMP determination after forskolin stimulation in transfected HEK-293T cells; set-up: expressed in transfected cells; host or cells: HEK-293T, transient transfection (PEI); details: for Emax: HEK-293T, normalized to maximal efficacious concentration of CP 55,940, read-out: CB2R Emax AMPc (converted); for EC50: transfected HEK-293T cells, forskolin-stimulated cAMP, read-out: CB2R EC50 AMPc
T1 sequence (P34972 whole entry): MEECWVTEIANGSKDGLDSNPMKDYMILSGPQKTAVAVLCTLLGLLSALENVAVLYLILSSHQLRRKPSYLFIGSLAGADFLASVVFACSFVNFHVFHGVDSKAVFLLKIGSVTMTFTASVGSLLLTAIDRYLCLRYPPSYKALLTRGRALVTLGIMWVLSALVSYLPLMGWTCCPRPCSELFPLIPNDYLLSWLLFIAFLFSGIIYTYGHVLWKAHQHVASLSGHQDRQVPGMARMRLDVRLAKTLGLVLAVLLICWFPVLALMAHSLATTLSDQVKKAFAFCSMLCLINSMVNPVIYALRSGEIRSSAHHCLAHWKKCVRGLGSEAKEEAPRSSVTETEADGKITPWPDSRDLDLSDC
Description: (§1) Initially we tested their ability to modify CB2R-mediated cAMP accumulation, providing insights into their functional behavior as either agonists or antagonists (Table ). Moreover, the signaling profiles of selected ligands were investigated through their impact on β-arrestin recruitment and Mitogen-Activated Protein Kinase (MAPK) phosphorylation pathway, enabling a more comprehensive evaluation of their intracellular signaling profiles (Table ).
HEK-293T cells were grown in Dulbecco’s Modified Eagle’s Medium (DMEM) medium (Gibco, Paisley, Scotland, United Kingdom) supplemented with 2 mM L-glutamine, 100 U/mL penicillin/streptomycin, MEM Non-Essential Amino Acids Solution (1/100) and 5% (v/v) heat inactivated Fetal Bovine Serum (FBS) (Invitrogen, Paisley, Scotland, United Kingdom). Cells were maintained in a humid atmosphere of 5% CO2 at 37 °C. Cells were transiently transfected with the PEI (Polyethylenimine, Sigma, St. Louis, MO, United States) method as previously described and used for functional assays 48 h later.
Signaling experiments have been performed as previously described. Two hours before initiating the experiment, HEK-293T cell-culture medium was replaced by serum-starved DMEM medium. Then, cells were detached, resuspended in growing medium containing […] zardaverine (Tocris, Bristol, U.K.) and placed in 384-well microplates (2500 cells/well). Cells were pretreated (15 min) with cannabinoid compounds (1 nM to 100 μM) -or vehicle- before adding […] forskolin (Tocris, Bristol, U.K.) to induce cAMP accumulation. Readings were performed after 15 min incubation at 25 °C. Homogeneous Time Resolved Fluorescence (HTRF) energy transfer measures were performed using the Lance Ultra cAMP kit (PerkinElmer, Waltham, MA, United States). Fluorescence at 665 nm was analyzed in a PHERA star Flagship microplate reader equipped with an HTRF optical module (BMG Lab Technologies, Offenburg, Germany).

CB2R [2] = target: T1, CB2R; test: CB2R MAPK phosphorylation; set-up: expressed in transfected cells; host or cells: HEK-293T, transient transfection (PEI); details: for Emax: normalized to CP 55,940
Description: as §1
(§2) JWH-133, a well-known nonbiased (balanced) agonist, was employed as the reference for comparing the signaling profiles of the tested compounds. An operational model analysis was applied to quantify the functional bias of each CB2R-selective agonist. This involved calculating the bias factor by comparing the signaling pathways: β-arrestin versus cAMP, MAPK versus cAMP, and β-arrestin versus MAPK.

[3] = Cytotoxicity on THP1 monocytes and macrophages; details: human, 100 nM, basal and LPS-stimulated conditions, read-out: cell viability (cytotoxicity)
Description: These findings collectively highlight the anti-inflammatory properties of the selected CB2R agonists. […] The cytokine modulation profiles observed (Figure ) support the hypothesis that these ligands promote a shift toward an anti-inflammatory immune response, reducing the detrimental effects of chronic inflammation. This makes them promising candidates for the development of new therapies addressing severe inflammatory conditions, such as systemic infections, sepsis, neuroinflammation, and certain types of cancer or scenarios where conventional anti-inflammatory treatments are insufficient. Moreover, the selective targeting of CB2R without activating CB1R ensures a favorable safety profile, minimizing the risk of psychoactive side effects, and positioning these ligands as promising candidates for neurodegenerative and oncological therapies. To ensure the safety and viability of our tested compounds, we evaluated their cytotoxic effects on monocytes and macrophages under the same conditions as those used for assessing anti-inflammatory activity (Figure ). Each compound was tested at a concentration of 100 nM.
Supplementary Figure S5. Cytotoxicity assessment of lead compounds (16i, 16j, 18e, 18f, 18o, and 18p) on THP1 monocytes and macrophages (n = 3). Cells were treated with each compound at 100 nM under both basal and LPS - stimulated conditions. The viability was compared to controls, including HU308 and SR144528. […]
cytotoxic effects, with cell viability remaining close to 100% across all conditions. Error bars represent standard deviation.
(1 picture or pasted object on this page, not shown here)

CB2R [4] = target: T1, CB2R; test: CB2R β-arrestin recruitment; set-up: expressed in transfected cells; host or cells: HEK-293T, transient transfection (PEI); details: for Emax: normalized to CP 55,940
Description: as §1, §2

[5] = tested on: human monocytes and macrophages (THP-1 cells); test: Cytokine production in THP-1 monocytes and macrophages (ELISA/qRT-PCR); details: 100 nM; for cytokine modulation profile (reduction of pro-inflammatory, increase of anti-inflammatory cytokines): monocytes and macrophages; for production of pro-inflammatory cytokines (TNF-α, IFN-γ, IL-1β, IL-6): unstimulated monocytes and macrophages, 24 h
Description: Six representative CB2R agonists (16i, 16j, 18e, 18f, 18o, and 18p) were evaluated for their ability to modulate the production of key pro- (e.g., TNF-α, IFN-γ, IL-1β, IL-6) and anti-inflammatory (e.g., IL-4, IL-10) cytokines in human monocytes and macrophages, where CB2R is abundantly expressed. The experiments were performed both in basal and LPS-activated states and would allow to gain insight into how these compounds affect circulating leukocytes (monocytes) and tissue-resident cells (macrophages). To mimic an inflammatory environment, both cell types were also treated with LPS, enabling an assessment of the anti-inflammatory potential of the compounds in both resting and activated states. Alongside the selected ligands, the study included HU308, a well-established CB2R-selective agonist known for its anti-inflammatory properties, and SR144528, a CB2R-selective antagonist. SR144528 was used alone and in combination with the test compounds to confirm that the observed effects were specifically mediated through CB2R activation.
8 Cytokines levels in human monocytes (A, B) and macrophages (C, D) treated with CB2R ligands. THP-1 cells either untreated (A-B) or treated (C, D) with 0.01 μM PMA for 48 h to differentiate them into macrophages, were incubated for additional 24 h in the absence (A, C) or presence of 10 μg/mL LPS (B, D), without (Ctrl) or with the CB2R reference agonist HU308, the reference antagonist SR144528 and the CB2R ligands 16i, 16j, 18e, 18f, 18o, 18p at 100 nM. All the compounds were tested alone (solid bars) and in the presence of the CB2R antagonist SR144528 (striped bars). Cytokine levels were measured by ELISA coupled with qRT-PCR. Data are means ± SD (n = 3). Two-way ANOVA followed by Tukey’s posthoc test was applied. *p < 0.05; **p < 0.01; ***p < 0.001; ****p < 0.0001; * indicates vs Ctrl.
The amount of cytokines was measured in 5 μL of supernatants, derived from 1 × 10^4 cells, using the ProQuantum immunoassays kits for TNF-α, IFN-γ, IL-1β, IL-6, IL-10, and IL-4 [all from ThermoFisher Scientific (Waltham, MA)] according to the manufacturer’s instructions. The results were expressed as pg/mL based on the titration curved of each kits.

Row | SMILES | Emax (CB2R [1]) [%] | EC50 (CB2R [1]) [nM] | EC50 (CB2R [2]) [nM] | Emax (CB2R [2]) [%] | viability at 0.1 µM [3] [%] | EC50 (CB2R [4]) [nM] | Emax (CB2R [4]) [%] | cytokine modulation profile (reduction of pro-inflammatory, increase of anti-inflammatory cytokines) [5] | production of pro-inflammatory cytokines (TNF-α, IFN-γ, IL-1β, IL-6) [5]
1 | CCCCCn1nc(C(=O)N2CCCC[C@H]2C(=O)OC)c2ccccc21 [16i] | 64 | 0.03 ± 0.01 | 0.38 ± 0.09 | 88 | ~100 | 1.09 ± 0.01 | 48 | significant reduction | significantly reduced
2 | CCCCCn1nc(C(=O)N2CCCC[C@@H]2C(=O)OC)c2ccccc21 [16j] | 53 | 0.09 ± 0.01 | 0.09 ± 0.003 | 89 | ~100 | 0.28 ± 0.02 | 65 | significant reduction | significantly reduced
3 | NC(=O)[C@@H]1CCCCN1C(=O)c1cn(CC2CCCCC2)c2ccccc12 [18e] | 82 | 1701 ± 12 | 0.09 ± 0.002 | 74 | ~100 | 0.4 ± 0.08 | 120 | limited efficacy | significantly reduced
4 | NC(=O)[C@H]1CCCCN1C(=O)c1cn(CC2CCCCC2)c2ccccc12 [18f] | 55 | 118 ± 4 | 0.07 ± 0.007 | 94 | ~100 | 0.08 ± 0.01 | 88 | limited efficacy | significantly reduced
5 | NC(=O)[C@@H]1CCCCN1C(=O)c1nn(Cc2ccc(F)cc2)c2ccccc12 [18o] | 60 | 0.6 ± 0.09 | 0.03 ± 0.003 | 68 | ~100 | 60.9 ± 2.5 | 148 | significant reduction | significantly reduced
6 | NC(=O)[C@H]1CCCCN1C(=O)c1nn(Cc2ccc(F)cc2)c2ccccc12 [18p] | 58 | 6.8 ± 0.3 | 0.4 ± 0.02 | 79 | ~100 | 326 ± 4 | 77 | significant reduction | significantly reduced
